Experimental data published in patent US20050192279A1, “Pyridazinones as antagonists of alpha4 integrins” (priority 2004, published 2005).

Columns and labels:
human α4β7 integrin = molecular target: T1, human α4β7 integrin (Homo sapiens, UniProt P13612+P26010); experiment: α4β7-K562 Cell Adhesion Assay (α4β7 Mediated Adhesion/MAdCAM-1); format: cell-based; details: α4β7-K562 cell adhesion to hMAdCAM-1; read-out: α4β7 IC50
T1 construct: expressed in transfected cells; host or cells: K562 cells, stably transfected
T1 sequence (P13612 34-1032): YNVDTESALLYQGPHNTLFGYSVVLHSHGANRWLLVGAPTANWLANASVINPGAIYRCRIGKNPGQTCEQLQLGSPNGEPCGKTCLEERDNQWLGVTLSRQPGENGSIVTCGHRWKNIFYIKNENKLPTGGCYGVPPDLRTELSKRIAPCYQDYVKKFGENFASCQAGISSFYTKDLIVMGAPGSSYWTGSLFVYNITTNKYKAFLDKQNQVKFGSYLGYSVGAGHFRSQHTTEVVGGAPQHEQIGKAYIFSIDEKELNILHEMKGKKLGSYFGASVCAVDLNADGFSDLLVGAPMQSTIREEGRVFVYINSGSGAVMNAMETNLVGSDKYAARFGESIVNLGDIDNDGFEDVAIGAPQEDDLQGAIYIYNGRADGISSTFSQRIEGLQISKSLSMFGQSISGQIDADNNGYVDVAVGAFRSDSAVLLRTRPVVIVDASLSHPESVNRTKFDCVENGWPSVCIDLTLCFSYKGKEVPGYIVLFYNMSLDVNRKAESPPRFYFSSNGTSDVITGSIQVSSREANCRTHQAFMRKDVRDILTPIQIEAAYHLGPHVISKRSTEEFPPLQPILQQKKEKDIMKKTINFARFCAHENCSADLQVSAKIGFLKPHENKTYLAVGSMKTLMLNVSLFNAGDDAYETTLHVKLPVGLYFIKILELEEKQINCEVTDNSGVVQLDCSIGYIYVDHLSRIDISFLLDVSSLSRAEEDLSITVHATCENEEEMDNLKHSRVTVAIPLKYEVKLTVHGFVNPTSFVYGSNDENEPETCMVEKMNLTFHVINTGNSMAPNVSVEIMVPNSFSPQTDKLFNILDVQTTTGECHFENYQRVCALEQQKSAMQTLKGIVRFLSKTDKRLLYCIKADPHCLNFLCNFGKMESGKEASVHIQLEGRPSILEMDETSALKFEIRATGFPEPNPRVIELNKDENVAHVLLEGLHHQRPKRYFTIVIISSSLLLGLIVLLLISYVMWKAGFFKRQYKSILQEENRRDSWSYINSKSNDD
T1 sequence (P26010 20-798): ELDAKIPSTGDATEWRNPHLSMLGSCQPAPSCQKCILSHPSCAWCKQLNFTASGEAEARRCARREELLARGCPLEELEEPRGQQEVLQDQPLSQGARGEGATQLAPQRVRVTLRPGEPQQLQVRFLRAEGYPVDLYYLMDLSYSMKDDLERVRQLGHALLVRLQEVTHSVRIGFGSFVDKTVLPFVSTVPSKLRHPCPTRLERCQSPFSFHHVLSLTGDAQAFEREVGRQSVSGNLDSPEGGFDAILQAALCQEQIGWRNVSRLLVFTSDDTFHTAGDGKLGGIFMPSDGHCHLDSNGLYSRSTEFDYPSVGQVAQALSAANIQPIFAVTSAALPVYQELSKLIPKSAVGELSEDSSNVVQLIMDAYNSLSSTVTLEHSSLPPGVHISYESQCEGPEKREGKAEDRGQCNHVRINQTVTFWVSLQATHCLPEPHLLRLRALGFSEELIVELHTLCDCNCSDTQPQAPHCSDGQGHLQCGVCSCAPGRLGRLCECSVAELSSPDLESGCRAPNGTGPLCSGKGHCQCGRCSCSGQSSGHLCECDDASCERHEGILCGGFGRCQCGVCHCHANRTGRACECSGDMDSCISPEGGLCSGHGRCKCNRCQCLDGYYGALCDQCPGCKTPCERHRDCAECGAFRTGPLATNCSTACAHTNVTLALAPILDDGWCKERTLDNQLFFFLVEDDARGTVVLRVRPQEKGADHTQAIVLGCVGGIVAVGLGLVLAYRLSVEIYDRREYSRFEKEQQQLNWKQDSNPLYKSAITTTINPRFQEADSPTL
Summary of the method: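 Anti-FLAG plates coated 1 h at 4° C with FLAG-hMAdCAM-1 in PBS pH 7.4, 1% BSA, 1 mM Mn2+. Stably transfected K562 cells expressing human α4β7, labelled with CFDA-SE, adhered with compound 1 h at room temperature. After four washes, bound cells lysed in 0.1 M NaOH for fluorescence read-out.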

α4β1 = molecular target: T2, α4β1 (Homo sapiens, UniProt P05556+P13612); experiment: Ramos Cell Adhesion Assay (α4β1 Mediated Adhesion/VCAM-1); format: cell-based; details: Ramos cell adhesion to hVCAM-1; read-out: α4β1 IC50
T2 construct: Ramos Cell Adhesion Assay (α4β1 Mediated Adhesion/VCAM-1); endogenous in cells; host or cells: Ramos cells
Summary of the method: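 Plates coated overnight at 4° C with recombinant hVCAM-1 at 4.0 μg/mL, pH 9.0, then blocked in PBS/1% BSA. Calcein AM-labeled Ramos cells added with compounds and left to adhere 1 h at room temperature; after washing, cells lysed in 1 M Tris pH 8.0/1% SDS.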

T2 sequence (P05556 21-798, one chain of several): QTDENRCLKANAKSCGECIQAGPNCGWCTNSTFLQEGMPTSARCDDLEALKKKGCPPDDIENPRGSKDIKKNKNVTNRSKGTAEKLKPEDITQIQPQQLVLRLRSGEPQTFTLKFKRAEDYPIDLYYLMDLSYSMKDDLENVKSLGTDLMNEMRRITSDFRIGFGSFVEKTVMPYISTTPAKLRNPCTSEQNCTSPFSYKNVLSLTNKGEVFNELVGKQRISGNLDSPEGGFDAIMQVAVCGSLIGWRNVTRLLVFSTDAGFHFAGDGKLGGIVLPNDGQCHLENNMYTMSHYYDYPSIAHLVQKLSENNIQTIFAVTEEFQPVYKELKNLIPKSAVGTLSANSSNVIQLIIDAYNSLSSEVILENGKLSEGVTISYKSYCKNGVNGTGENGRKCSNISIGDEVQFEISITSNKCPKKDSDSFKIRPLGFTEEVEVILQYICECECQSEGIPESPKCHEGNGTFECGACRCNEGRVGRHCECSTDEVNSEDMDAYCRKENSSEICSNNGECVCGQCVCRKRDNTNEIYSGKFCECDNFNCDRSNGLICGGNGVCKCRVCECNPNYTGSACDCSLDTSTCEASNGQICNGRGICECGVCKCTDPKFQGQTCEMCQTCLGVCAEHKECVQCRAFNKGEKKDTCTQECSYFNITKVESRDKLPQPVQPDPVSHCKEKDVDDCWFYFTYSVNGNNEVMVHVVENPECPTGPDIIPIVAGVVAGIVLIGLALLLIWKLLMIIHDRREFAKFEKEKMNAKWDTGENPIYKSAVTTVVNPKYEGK

Compound	IC50 (human α4β7 integrin) [nM]	IC50 (α4β1) [nM]
COc1cnn(CCN2CCOCC2)c(=O)c1-c1ccc(C[C@H](NC(=O)[C@H](NC(C)C)C(C)C)C(=O)O)cc1 [Cpd 179]	721	> 5000
COc1cnn(C)c(=O)c1-c1ccc(C[C@H](NC(=O)OC23CC4CC(CC(C4)C2)C3)C(=O)O)cc1 [Cpd 180]	731	> 5000
COc1cnn(C)c(=O)c1-c1ccc(CC(NC(=O)C(N)C(C)C)C(=O)O)cc1 (stereo not shown) [Cpd 181, 2-(2-Amino-3-methyl-butyrylamino)-3-[4-(5-methoxy-2-methyl-3-oxo-2,3-dihydro-pyridazin-4-yl)-phenyl]-propionic acid]	750	> 5000
COC(=O)[C@H](Cc1ccc(-c2c(OC)cnn(C)c2=O)cc1)NC(=O)[C@@H]1C2CCC(CC2)N1C(=O)CCc1ccccc1 [Cpd 182]	785	> 1000
COc1cnn(C)c(=O)c1-c1ccc(C[C@H](NC(=O)OC(C)C)C(=O)O)cc1 [Cpd 184]	813	> 5000
COc1cnn(C)c(=O)c1-c1ccc(C[C@H](NC(=O)C(C)(C)O)C(=O)O)cc1 [Cpd 185]	817	> 5000
COc1cnn(C)c(=O)c1-c1ccc(C[C@H](NC(=O)C2(C(=O)OC(C)(C)C)CCOCC2)C(=O)O)cc1 [Cpd 186]	842	1530
COc1cnn(C)c(=O)c1-c1ccc(C[C@H](NC(=O)c2n[nH]c3ccccc23)C(=O)O)cc1 [Cpd 187]	865	> 5000
COc1cc(N)c(Cl)cc1C(=O)N[C@@H](Cc1ccc(-c2c(OC)cnn(C)c2=O)cc1)C(=O)O [Cpd 188]	922	> 5000
COc1cnn(C)c(=O)c1-c1ccc(C[C@H](NC(=O)[C@@H](NC2CCCCC2)C(C)C)C(=O)O)cc1 [Cpd 189]	937	> 5000
Cn1ncc(N)c(-c2ccc(C[C@H](NC(=O)OC(C)(C)C)C(=O)O)cc2)c1=O [Cpd 190]	979	> 5000
COc1cnn(C)c(=O)c1-c1ccc(C[C@H](NC(=O)c2cccnc2O)C(=O)O)cc1 [Cpd 191]	999	> 5000
COc1cnn(C)c(=O)c1-c1ccc(C[C@H](NC(=O)c2cccn(C)c2=O)C(=O)O)cc1 [Cpd 193]	1160	> 5000
COc1cnn(CCO)c(=O)c1-c1ccc(C[C@@H](CO)NC(=O)c2c(Cl)cccc2Cl)cc1 [Cpd 194]	1220	> 5000
Cc1ccc(Oc2cnn(C(C)(C)C)c(=O)c2-c2ccc(C[C@H](NC(=O)c3c(Cl)cccc3Cl)C(=O)O)cc2)cc1 [Cpd 196, (S)-3-[4-(2-tert-Butyl-3-oxo-5-p-tolyloxy-2,3-dihydro-pyridazin-4-yl)-phenyl]-2-(2,6-dichloro-benzoylamino)-propionic acid]	1290	> 5000
Nc1cnn(-c2ccccc2)c(=O)c1-c1ccc(C[C@H](NC(=O)c2c(Cl)cccc2Cl)C(=O)O)cc1 [Cpd 197]	1320	> 1000
COc1cnn(C)c(=O)c1-c1ccc(C[C@H](NC(=O)C2CCNCC2)C(=O)O)cc1 [Cpd 198]	1340	> 5000
COc1cnn(C)c(=O)c1-c1ccc(C[C@H](NC(=O)OCc2cccs2)C(=O)O)cc1 [Cpd 201]	1440	> 5000
COc1cnn(C)c(=O)c1-c1ccc(C[C@H](NC(=O)C2CCN(C(=O)OC(C)(C)C)CC2)C(=O)O)cc1 [Cpd 202]	1480	> 5000
COc1cnn(C)c(=O)c1-c1ccc(C[C@H](NC(=O)OCc2c(C)cc(C)cc2C)C(=O)O)cc1 [Cpd 203]	1780	> 5000
COc1cnn(C)c(=O)c1-c1ccc(C[C@H](NC(=O)OCc2c(Cl)cccc2Cl)C(=O)O)cc1 [Cpd 204]	1870	> 5000
COc1cnn(C)c(=O)c1-c1ccc(C[C@H](NC(=O)c2cnc[nH]2)C(=O)O)cc1 [Cpd 205]	2320	> 5000
COc1cnn(C)c(=O)c1-c1ccc(C[C@H](NC(=O)CCC(C)(C)C)C(=O)O)cc1 [Cpd 206]	2550	3300
